Assays:
Test in all cases: competitive isoTOP-ABPP, MDA-MB-231 soluble proteome
Format in all cases: binding
IFIT3 = target: T1, IFIT3 (Homo sapiens, UniProt O14879); conditions: 100 μM LDE, 60 min; peptide GLNPLNAYSDLAEFLETEC*YQTPFNK
T1 construct: directly in native proteomes; endogenous in cells; host or cells: MDA-MB-231
T1 sequence (O14879 1-490): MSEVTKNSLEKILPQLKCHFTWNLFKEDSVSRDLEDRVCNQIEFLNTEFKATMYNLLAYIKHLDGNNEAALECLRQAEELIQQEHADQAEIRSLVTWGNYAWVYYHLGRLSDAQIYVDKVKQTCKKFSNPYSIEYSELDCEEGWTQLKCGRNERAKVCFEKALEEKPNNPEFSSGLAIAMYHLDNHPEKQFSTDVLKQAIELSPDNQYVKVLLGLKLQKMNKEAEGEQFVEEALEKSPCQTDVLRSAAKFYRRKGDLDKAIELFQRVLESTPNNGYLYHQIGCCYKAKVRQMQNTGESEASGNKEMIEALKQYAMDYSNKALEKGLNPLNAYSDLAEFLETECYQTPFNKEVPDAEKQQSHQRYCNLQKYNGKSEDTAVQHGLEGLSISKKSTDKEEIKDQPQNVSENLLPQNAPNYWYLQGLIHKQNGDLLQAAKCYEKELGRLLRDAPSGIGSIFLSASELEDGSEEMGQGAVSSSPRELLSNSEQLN
Experimental: (§1) Here, we envisioned that isoTOP-ABPP could be advanced to discover and quantify reactions between cysteines in proteomes and any electrophilic compound. In this advanced, ‘competitive’ version of isoTOP-ABPP (FIG. 1a), a proteome is treated with an electrophile (experimental sample) or DMSO (control sample). Both proteomic samples are then labeled with the IA probe and conjugated by CuAAC to light and heavy azide-biotin tags, respectively. The light and heavy samples are then mixed and subjected to our described isoTOP-ABPP protocol for enrichment, identification, and quantification of IA-labeled cysteines^30. Electrophile-modified cysteines are quantified by measuring the MS1 chromatographic peak ratios (R values) for heavy (DMSO-treated) over light (electrophile-treated) samples, with higher R values reflecting greater sensitivity to the electrophile. In this format, competitive isoTOP-ABPP can assay electrophiles against 1000+ cysteines in parallel directly in native proteomes without requiring any chemical modification to the electrophiles themselves.
(§2) Competitive isoTOP-ABPP experiments were performed in quadruplicate using the soluble proteome of the human breast cancer cell line MDA-MB-231 cell line. Proteomes were treated with 100 μM HNE, 15d-PGJ2, or 2-HD, for 60 minutes, followed by the IA-probe (100 μM, 60 min) A total of ˜1400 cysteine reactivities were quantified across the aggregate data set, with at least 900 cysteine reactivities quantified for each LDE (FIG. 2a) more than 750 of which were quantified for all the three electrophiles.
(§3) HNE was purchased from EMD biosciences, 15d-PGJ2 was purchased from Cayman Chemicals and 2-HD was purchased from Santa Cruz Biotechnology. Proteome samples were diluted to a 4 mg protein/mL solution in PBS. For each profiling experiment, one aliquot of the proteome sample (0.5 mL) was treated with 100 μM of LDE using 5 μL of a 10 mM stock and the other aliquot was treated with 5 μL of either ethanol (for HNE and 15d-PGJ2) or DMSO (for 2-HD) as control. For the concentration-dependent profiling experiments using HNE, aliquots of the proteomes (0.5 mL each) were treated with 5, 10, 50, 100 and 500 μM of HNE using 5 μL of 0.5, 1.0, 5, 10 and 50 mM of stock solution, respectively. After 60 minutes of treatment at room temperature, both the LDE-treated and control aliquots were passed through a NAP-5 Sephadex column (GE healthcare) to remove any unreacted LDE. The volume of each aliquot was increased to 1 mL with the concentration at 2 mg/mL after this step.
(§4) Each of the control and LDE-treated proteome samples (˜2 mg protein/mL in 1 mL volume) was treated with 100 μM of IA-probe using 10 μL of a 10 mM stock in DMSO. The labeling reactions were incubated at room temperature for 1 hour. Click chemistry (acetylene-azide cycloaddition) was performed by the addition of 100 μM of either the Heavy-TEV-Tag (for the control sample) or Light-TEV-Tag (for the LDE-treated sample) (20 μL of a 5 mM stock), 1 mM TCEP (fresh 50× stock in water), 100 μM ligand (17× stock in DMSO:t-Butanol 1:4) and 1 mM CuSO4 (50× stock in water). Samples were allowed to react at room temperature for 1 hour. After the click chemistry step, the light and heavy-labeled samples were mixed together and centrifuged (5900×g, 4 min, 4° C.) to pellet the precipitated proteins.
(§5) The pellets were washed twice in cold MeOH, after which the pellet was solubilized in PBS containing 1.2% SDS via sonication and heating (5 min, 80° C.). Samples were subjected to streptavidin enrichment of probe-labeled proteins, sequential on-bead trypsin and TEV digestion, and liquid chromatography-mass spectrometry (LC-MS) analysis according to the published isoTOP-ABPP protocol^30.
(§6) IA-probe labeled peptides were identified by SEQUEST2 and DTASelect3, and the quantification of heavy/light ratios (isoTOP-ABPP ratios, R) was performed by an in-house software (CIMAGE) as previously described. […]

MAPK9 = target: T2, MAPK9 (Homo sapiens, UniProt P45984); conditions: 100 μM LDE, 60 min; peptide TLEEFQDVYLVMELMDANLC*QVIHMELDHER
T2 construct: directly in native proteomes; endogenous in cells; host or cells: MDA-MB-231
Experimental: as §1, §2, §3, §4, §5, §6

PSMB8 = target: T3, PSMB8 (Homo sapiens, UniProt P28062); conditions: 100 μM LDE, 60 min; peptide LLSNMMC*QYR
T3 construct: directly in native proteomes; endogenous in cells; host or cells: MDA-MB-231
T3 sequence (P28062 73-276): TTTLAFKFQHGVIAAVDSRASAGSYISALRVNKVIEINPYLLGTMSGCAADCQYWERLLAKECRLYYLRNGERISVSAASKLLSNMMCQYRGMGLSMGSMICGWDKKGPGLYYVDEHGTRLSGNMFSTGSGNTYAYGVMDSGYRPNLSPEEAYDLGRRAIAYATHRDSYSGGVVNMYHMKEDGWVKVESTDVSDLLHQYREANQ
Experimental: as §1, §2, §3, §4, §5, §6

RPL24 = target: T4, RPL24 (Homo sapiens, UniProt P83731); conditions: 100 μM LDE, 60 min; peptide C*ESAFLSK
T4 construct: directly in native proteomes; endogenous in cells; host or cells: MDA-MB-231
Experimental: as §1, §2, §3, §4, §5, §6

TNRC5 = target: T5, TNRC5 (Homo sapiens, UniProt Q9BT09); conditions: 100 μM LDE, 60 min; peptide QC*DVLVEEFEEVIEDWYR
T5 construct: directly in native proteomes; endogenous in cells; host or cells: MDA-MB-231
T5 sequence (Q9BT09 31-278): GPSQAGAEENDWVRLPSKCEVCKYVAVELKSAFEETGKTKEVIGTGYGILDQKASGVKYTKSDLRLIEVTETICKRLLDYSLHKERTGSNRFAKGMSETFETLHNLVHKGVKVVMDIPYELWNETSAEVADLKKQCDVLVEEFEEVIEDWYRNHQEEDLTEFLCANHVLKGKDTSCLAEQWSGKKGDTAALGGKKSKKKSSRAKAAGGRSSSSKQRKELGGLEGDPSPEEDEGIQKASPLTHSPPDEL
Experimental: as §1, §2, §3, §4, §5, §6

T2 sequence (P45984 whole entry): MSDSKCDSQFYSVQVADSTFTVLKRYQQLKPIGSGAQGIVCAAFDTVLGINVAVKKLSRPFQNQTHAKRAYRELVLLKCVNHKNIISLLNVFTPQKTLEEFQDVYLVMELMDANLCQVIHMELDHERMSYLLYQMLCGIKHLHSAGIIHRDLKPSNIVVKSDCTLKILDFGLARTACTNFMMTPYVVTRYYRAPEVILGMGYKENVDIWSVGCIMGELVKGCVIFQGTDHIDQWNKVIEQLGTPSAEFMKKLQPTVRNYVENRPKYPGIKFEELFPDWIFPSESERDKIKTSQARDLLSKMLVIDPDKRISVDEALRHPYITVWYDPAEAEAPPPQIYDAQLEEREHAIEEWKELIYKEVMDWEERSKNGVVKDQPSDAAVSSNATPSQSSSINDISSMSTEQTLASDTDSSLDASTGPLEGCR

Structure (SMILES) | R value (isoTOP-ABPP ratio heavy/light) for IA-labeled cysteine of IFIT3 (IFIT3) | R value (isoTOP-ABPP ratio heavy/light) for IA-labeled cysteine of MAPK9 (MAPK9) | R value (isoTOP-ABPP ratio heavy/light) for IA-labeled cysteine of PSMB8 (PSMB8) | R value (isoTOP-ABPP ratio heavy/light) for IA-labeled cysteine of RPL24 (RPL24) | R value (isoTOP-ABPP ratio heavy/light) for IA-labeled cysteine of TNRC5 (TNRC5)
CCCCCCCCCCCCC/C=C/C=O [2-HD, 2-trans-hexadecenal] | 1.23 | 1.14 | 1.05 | 1.25 | 1.06
CCCCCC(O)/C=C/C=O (stereo not drawn) [4-HNE, 4-Hydroxynonenal] | 1.51 | 5.08 | 1.19 | 1.74 | 1.29
CCCCC/C=C/C=C1/C(=O)C=C[C@@H]1C/C=C\CCCC(=O)O [PGJ2, 15-deoxy-Δ12,14-prostaglandin J2] | 9.43 | 1.78 | 5.86 | 6.78 | 11.77

Reference: patent US10782295B2, “Cysteine-reactive ligand discovery in proteomes” (THE SCRIPPS RESEARCH INSTITUTE, priority 2013, dated 2020)
